From US20250250283A1, “COMPOUND CAPABLE OF REGULATING AND CONTROLLING ACTIVITY OF 15-PGDH, AND PREPARATION METHOD THEREFOR” (SCINNOHUB PHARMACEUTICAL CO., LTD., priority 2022, published 2025)
Where two headings read alike, the source gives them in different places.

Tests used:
15-PGDH enzyme = 15-PGDH enzyme (Homo sapiens (Human), UniProt P15428); assay: Detection of activity of 15-PGDH (enzyme inhibition, NADH fluorescence, PGF2α/β-NAD substrates); format: biochemical
Description: Test Example 1: Detection of Activity of 15-PGDH Kinase
• a. A solution of pH 7.5 containing 50 mM Tris-HCl, 0.01% Tween 20 was prepared with ultrapure water as a reaction buffer; • b. A 10 mM mother liquor of the compound to be tested was prepared with DMSO, and then the reaction buffer was used to dilute the mother liquor of the compound to be tested to obtain solution 1 of the compound to be tested at a concentration of 40,000 nM, and then the solution 1 of the compound to be tested was serially diluted into solutions 2-9 (or 2-12) of the compound to be tested at 9 (or 11) concentrations with a gradient difference of three-fold. 5 μL of each concentration of solutions of the compound to be tested was respectively taken and added into a 384-well plate as test wells; • c. 5 μL of the reaction buffer was added to the blank wells of the 384-well plate as positive control and blank control wells, respectively; • d. The reaction buffer was used to prepare a 15-PGDH protein solution at a concentration of 5 ng/μL, 5 μL of the 15-PGDH protein solution was taken and added to the test wells and positive control wells, and meanwhile 5 μL of the reaction buffer was added to the blank control wells, then the plate was centrifuged at 2000 rpm for 30 seconds; • e. The reaction buffer was used to prepare 5 mM β-NAD and 2 mM PGF2α, respectively, which were mixed at 1:1 by volume to obtain a substrate mixture, 10 μL of the substrate mixture was taken and added to the test wells, positive control wells and blank control wells to start the reaction; • f. The fluorescence signal value (Ex/Em=340/450) of each well was detected continuously by using a multifunctional microplate reader.
• a) Continuous fluorescence signal values were analyzed by using the “kinetic calculations-slope calculation method” in the PHERAstar Data analysis software to obtain the slope of each test well; • b) The inhibition rate % was calculated by using the following formula:
[formula] • c) Calculation of IC50 and plotting of inhibition rate-dose curves: IC50 values were calculated by fitting compound concentrations and corresponding inhibition rates with a nonlinear regression (dose response-variable slope) via using GraphPad Prism 6.0. The formula was shown below:
Y=Bottom+(Top−Bottom)/(1+10^((Log IC50−X)*HillSlope)), wherein X is a log value of a concentration of the compound, and Y is inhibition rate %.

A549 cells = assay: Assay of intracellular PGE2 up-regulatory activity in IL-1β-stimulated A549 cells; format: cell-based; settings: IL-1β induced, 8 h
Description: Test Example 2: Assay of Intracellular PGE2 Up-Regulatory Activity
a) A549 cells were inoculated in the 24-well plate, and after cell adhesion, IL-1β was added thereto for 16 h of stimulation to induce COX2 expression and PGE2 production. b) A solution of the compound to be tested was prepared with the culture medium and gradiently diluted to 3 concentrations of 10 nM, 300 nM and 10,000 nM or 7 concentrations of 0.64 nM, 3.2 nM, 16 nM, 80 nM, 400 nM, 2000 nM and 10,000 nM, and meanwhile the positive control group (only IL-1β was added to the cells for induction) and negative control group (only cells were added in the wells without any treatment) were set up. The cell supernatants were collected after 8 h of action, in which the positive control group was induced by IL-1β without treatment of the compounds, and the negative control group was neither stimulated by IL-1β, nor treated with the compounds. c) The PGE2 content of the samples was determined by Prostaglandin E2 Kit, and the fluorescence signal was detected by a multifunctional microplate reader (Ex/Em=337/620, 337/665).
a) A standard curve was plotted with the PGE2 standard in the Prostaglandin E2 Kit, and the PGE2 concentration was calculated by substituting with the fluorescence signal of the sample. b) The PGE2 up-regulation rate % was calculated by using the following formula: […]

[1] = inhibitory activity against 15-PGDH enzyme, class symbols, read-out: IC50

15-PGDH enzyme, sequence (P15428 whole entry): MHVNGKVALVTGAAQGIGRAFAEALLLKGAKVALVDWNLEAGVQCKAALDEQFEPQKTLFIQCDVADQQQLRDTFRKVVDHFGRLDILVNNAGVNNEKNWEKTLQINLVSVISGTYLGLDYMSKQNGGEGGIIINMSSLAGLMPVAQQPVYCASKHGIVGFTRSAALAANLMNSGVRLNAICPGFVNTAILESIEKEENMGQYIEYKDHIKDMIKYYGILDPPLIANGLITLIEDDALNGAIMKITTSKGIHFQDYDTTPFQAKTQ

Row | Compound | IC50 (15-PGDH enzyme; [1]) [nM] | also measured
1 | Nc1c(C(=O)N2CCCCC2)sc2nc(-c3ccccc3)n3ccnc3c12 [Example 7] | < 3 | 
2 | Nc1c(C(=O)N2CCCCC2)sc2nc(-c3nccs3)n3ccnc3c12 [Example 19] | 10 to 25 | 
3 | Nc1c(C(=O)N2CCCCC2)sc2nc(-c3cnccn3)n3ccnc3c12 [Example 21] | < 3 | PGE2 up-regulation rate (A549 cells; compound 400 nM): 321%
4 | O=C(c1sc2nc(-c3ccccc3)n3ccnc3c2c1C(F)(F)F)N1CCCCC1 [Example 12] | 3 to 10 | 
5 | Nc1c(C(=O)N2CCCCC2)sc2nc(-c3ccccn3)n3ccnc3c12 [Example 10] | 3 to 10 | 
6 | Nc1c(C(=O)N2CCCCC2)sc2nc(-c3ccccc3)n3cnnc3c12 [Example 5, (9-amino-5-phenylthieno[3,2-e][1,2,4]triazolo[4,3-c]pyrimidin-8-yl)(piperidin-1-yl)methanone] | 3 to 10 | 
7 | Nc1c(C(=O)N2CCCC2)sc2nc(-c3ccccc3)n3ccnc3c12 [Example 17] | 25 to 50 | 
8 | O=C(c1cc2c(nc(-c3ccccc3)n3ccnc23)s1)N1CCCCC1 [Example 18] | 10 to 25 | 
9 | CC(C)c1c(C(=O)N2CCCCC2)sc2nc(-c3ccccc3)n3ccnc3c12 [Example 23, (9-isopropyl-5-phenylimidazo[1,2-c]thieno[3,2-e]pyrimidin-8-yl)(piperidin-1-yl)methanone] | 3 to 10 | 
10 | Nc1c(C(=O)N2CCC(F)CC2)sc2nc(-c3ccccc3)n3ccnc3c12 [Example 1, (9-amino-5-phenylimidazo[1,2-c]thieno[3,2-e]pyrimidin-8-yl)(4-fluoropiperidin-1-yl)methanone] | < 3 | IC50 (15-PGDH enzyme; stated in text as bounds, read-out: IC50 value of the inhibitory activity against 15-PGDH enzyme): < 1.5 nM
11 | Nc1c(C(=O)N2CCC(F)CC2)sc2nc(-c3ccccc3)n3cc(C(F)(F)F)nc3c12 [Example 2, (9-amino-5-phenyl-2-(trifluoromethyl)imidazo[1,2-c]thieno[3,2-e]pyrimidin-8-yl)(4-fluoropiperidin-1-yl)methanone] | 3 to 10 | 
12 | Nc1c(C(=O)N2CCC(F)(F)CC2)sc2nc(-c3ccccc3)n3ccnc3c12 [Example 8] | 3 to 10 | PGE2 up-regulation rate (A549 cells; compound 16 nM): 483%; PGE2 up-regulation rate (A549 cells; compound 80 nM): 520%; PGE2 up-regulation rate (A549 cells; compound 400 nM): 770%
13 | Nc1c(C(=O)N2CCC(F)CC2)sc2c1C1=NCCN1C(c1ccccc1)=N2 [Compound 8, (9-amino-5-phenyl-2,3-dihydroimidazo[1,2-c]thieno[3,2-e]pyrimidin-8-yl)(4-fluoropiperidin-1-yl)methanone] | 10 to 25 | 
14 | Cc1c(C(=O)N2CCCCC2)sc2nc(-c3ccccc3)n3ccnc3c12 [Example 13] | 3 to 10 | 
15 | Nc1c(C(=O)N2CCCCC2)sc2nc(-c3cccnc3)n3ccnc3c12 [Example 15] | < 3 | 
16 | N#Cc1c(C(=O)N2CCCCC2)sc2nc(-c3ccccc3)n3ccnc3c12 [Example 22] | 3 to 10 | 
17 | O=C(c1sc2nc(-c3ccccc3)n3ccnc3c2c1I)N1CCCCC1 [Example 4, (9-iodo-5-phenylimidazo[1,2-c]thieno[3,2-e]pyrimidin-8-yl)(piperidin-1-yl)methanone] | < 3 | 
18 | Cc1cn2c(-c3ccccc3)nc3sc(C(=O)N4CCC(F)CC4)c(N)c3c2n1 [Example 9] | 3 to 10 | PGE2 up-regulation rate (A549 cells; compound 400 nM): 333%
19 | O=C(c1sc2nc(-c3ccccc3)n3ccnc3c2c1C1CC1)N1CCCCC1 [Example 14] | 3 to 10 | 
20 | CCN(CC)C(=O)c1sc2nc(-c3ccccc3)n3ccnc3c2c1N [Example 16] | 25 to 50 | 
21 | CN1Cc2cc(-c3nc4sc(C(=O)N5CCCCC5)c(N)c4c4nccn34)ccc2C1=O [Example 24, 5-(9-amino-8-(piperidine-1-carbonyl)imidazo[1,2-c]thieno[3,2-e]pyrimidin-5-yl)-2-methylisoindol-1-one] | < 3 | PGE2 up-regulation rate (A549 cells; compound 3.2 nM): 568%; PGE2 up-regulation rate (A549 cells; compound 16 nM): 461%; PGE2 up-regulation rate (A549 cells; compound 80 nM): 473%
22 | Nc1c(C(=O)N2CCCCC2)sc2nc(-c3ccc4ccccc4n3)n3ccnc3c12 [Example 20] | 10 to 25 | 
23 | Nc1c(C(=O)N2CCCCC2)sc2nc(-c3ccncc3)n3ccnc3c12 [Example 3, (9-amino-5-(pyridin-4-yl)imidazo[1,2-c]thieno[3,2-e]pyrimidin-8-yl)(piperidin-1-yl)methanone] | < 3 | 
24 | Cn1ccc2cc(-c3nc4sc(C(=O)N5CCCCC5)c(N)c4c4nccn34)ccc2c1=O [Example 25, 6-(9-amino-8-(piperidin-1-carbonyl)imidazo[1,2-c]thieno[3,2-e]pyrimidin-5-yl)-2-methylisoquinolin-1(2H)-one] | < 3 | PGE2 up-regulation rate (A549 cells; compound 3.2 nM): 513%; PGE2 up-regulation rate (A549 cells; compound 16 nM): 782%; PGE2 up-regulation rate (A549 cells; compound 80 nM): 741%
25 | COc1c(C(=O)N2CCCCC2)sc2nc(-c3ccccc3)n3ccnc3c12 [Example 6, (9-methoxy-5-phenylimidazo[1,2-c]thieno[3,2-e]pyrimidin-8-yl)(piperidin-1-yl)methanone] | 10 to 25 | 
